According to US12005096B2, “Apoaequorin and vitamin d-containing compositions and methods of using same” (QUINCY BIOSCIENCE, LLC, priority 2016, dated 2024):
Like-named read-outs stand apart in the source and are kept apart here.

Legend:
[1] = test system: rat hippocampal brain slices; assay: Neuroprotection in rat hippocampal brain slices after oxygen glucose deprivation (OGD); type: in vivo; details: 5-min OGD; AQ by direct hippocampal injection; vitamin D in diet 0.0125 mg/kg for ~10 days; preliminary results
[2] = not given; remark: listed apart in the source
[3] = not given; remark: listed apart in the source
[4] = apoaequorin 10 mg daily, N=56, eight days to 30 days

Substance	cell death (dead and dying, blue stained cells) after OGD [1]	overall quality of sleep, energy, mood, pain, general health (change from baseline of scores) (32 patients, 90 day period, open-label)	participants discontinued the study due to an adverse event (in vivo)	memory performance (memory screening tool) ([2]; 56 participants, day 8 and day 30)	memory improvement ([2]; apoaequorin 10 mg daily, 56 participants, after 30 days)	participants with improvement in general memory [2, 4]	participants with improvement in remembering driving directions [2, 4]	participants with improvement in retaining information [2, 4]	participants with improvement in word recall [2, 4]	participants discontinued the study due to an adverse event ([2]; in vivo)	participants with an increase in cognitive ability ([3]; 32 patients, 90 days)	cognition (standardized cognitive battery) ([3]; 32 patients, day 8, 30, 60-90)	participants discontinued the study due to an adverse event ([3]; in vivo)
apoaequorin	few er dead and dying cells	increase	No participants discontinued the study due to an adverse event	improved memory performance as early as eight days but with statistically greater improvement at day 30	statistically significant improvement in memory	57%	84%	51%	66%	No participants discontinued the study due to an adverse event	Greater than 51%	improved cognition as early as eight days but with statistically greater improvement at day 30, as well as 60-90	No participants discontinued the study due to an adverse event
vitamin D [reference compound]	fewer dead or dying cells	–	–	–	–	–	–	–	–	–	–	–	–
